Measurements: US5438052A, “Cephalosporin derivatives” (Hoffmann-La Roche Inc., priority 1991, dated 1995)
Values after ≈ are worked out from the molar mass of the structure shown.

Experiments:
C. freundii 902 = test: Minimum inhibitory concentration in vitro, agar dilution method; format: cell-based; settings: Citrobacter freundii; C. freundii 902, agar dilution; read-out: MIC
Source text: (§1) 1. Minimum Inhibitory Concentration in vitro
(§2) The activities ascertained, minimum inhibitory concentration (MIC) in μg/ml, are compiled in Table 1 hereinafter: […]

E. cloacae 908R = test: as above; format: cell-based; settings: Enterobacter cloacae; E. cloacae 908R, agar dilution; read-out: MIC
Source text: as §1, §2

E. cloacae 908SSi = test: as above; format: cell-based; settings: Enterobacter cloacae; E. cloacae 908SSi, agar dilution; read-out: MIC
Source text: as §1, §2

E. cloacae P99 = test: as above; format: cell-based; settings: Enterobacter cloacae
Source text: as §1, §2

E. coli 25922 [1] = test: as above; format: cell-based; settings: Escherichia coli; E. coli 25922, agar dilution; read-out: MIC
Source text: as §1, §2

K. oxytoca 1082 = test: as above; format: cell-based; settings: Klebsiella oxytoca; K. oxytoca 1082, agar dilution; read-out: MIC
Source text: as §1, §2

K. pneumoniae 418 = test: as above; format: cell-based; settings: Klebsiella pneumoniae; K. pneumoniae 418, agar dilution; read-out: MIC
Source text: as §1, §2

P. aeruginosa 27853 = test: as above; format: cell-based; settings: Pseudomonas aeruginosa; P. aeruginosa 27853, agar dilution; read-out: MIC
Source text: as §1, §2

P. aeruginosa 799/61 = test: as above; format: cell-based; settings: Pseudomonas aeruginosa; P. aeruginosa 799/61, agar dilution; read-out: MIC
Source text: as §1, §2

P. aeruginosa 799/WT = test: as above; format: cell-based; settings: Pseudomonas aeruginosa; P. aeruginosa 799/WT, agar dilution; read-out: MIC
Source text: as §1, §2

P. aeruginosa BA = test: as above; format: cell-based; settings: Pseudomonas aeruginosa; P. aeruginosa BA, agar dilution; read-out: MIC
Source text: as §1, §2

P. aeruginosa MK1184 = test: as above; format: cell-based; settings: Pseudomonas aeruginosa; P. aeruginosa MK1184, agar dilution; read-out: MIC
Source text: as §1, §2

P. mirabilis 2117 = test: as above; format: cell-based; settings: Proteus mirabilis; P. mirabilis 2117, agar dilution; read-out: MIC
Source text: as §1, §2

P. vulgaris 1028 = test: as above; format: cell-based; settings: Proteus vulgaris; P. vulgaris 1028, agar dilution; read-out: MIC
Source text: as §1, §2

S. aureus 6538 = test: as above; format: cell-based; settings: Staphylococcus aureus; S. aureus 6538, agar dilution; read-out: MIC
Source text: as §1, §2

S. marcescens 69438 = test: as above; format: cell-based; settings: Serratia marcescens; S. marcescens 69438, agar dilution; read-out: MIC
Source text: as §1, §2

S. pyogenes 15 = test: as above; format: cell-based; settings: Streptococcus pyogenes; S. pyogenes 15, agar dilution; read-out: MIC
Source text: as §1, §2

[2] = tested on: Pseudomonas aeruginosa BA; test: Experimental systemic septicaemia in the mouse; format: in vivo; settings: sc, 96 h, P. aeruginosa BA, albino mice, s.c. 1, 3 and 5 hours after infection, survival after 4 days, read-out: ED50
Method: (§3) 2. Experimental systemic septicaemia in the mouse
(§4) An experimental systemic septicaemia was produced in albino mice weighing 16-20 g by intraperitoneally injecting into the experimental animals a sample of a dilute culture of the test organism which had been grown overnight. The sample administered is calculated such that the dosage administered is about 5-100 times greater than the dosage which is required to kill 50% of untreated experimental animals within 48 hours. The bacteria were injected as a suspension in the culture broth. Groups of 5 experimental animals each were used not only for the control, but also for the treatment for each dosage tested. The products in accordance with the invention were administered subcutaneously as a suspension in Tween 80 (2%), whereby the concentrations were chosen such that each experimental animal received 500 μl per administration. The respective concentrations were administered twice, namely 1 and 3 hours after the infection (in the case of P. aeruginosa three times, namely 1, 3 and 5 hours after the infection). The ED50 is that dosage which protects 50% of the experimental animals and was calculated by means of the Probit method on the basis of the survial rate after 4 days following the infection. The ED50 values in mg/kg s.c. (subcutaneous) for representatives of the class of substance in accordance with the invention are given in Table 2 hereinafter.

S. pneumoniae BA = test: Minimum inhibitory concentration in vitro, agar dilution method; format: cell-based; settings: Streptococcus pneumoniae; S. pneumoniae BA, agar dilution; read-out: MIC
Source text: as §1, §2

E. coli 25922 [3] = test: Experimental systemic septicaemia in the mouse; format: in vivo; settings: Escherichia coli, sc, 96 h; E. coli 25922, albino mice, s.c. 1 and 3 hours after infection, survival after 4 days; read-out: ED50
Method: as §3, §4

Nc1nc(/C(=N/OCc2nc(=O)c(O)c[nH]2)C(=O)N[C@@H]2C(=O)N3C(C(=O)O)=C(CSc4cc(-c5ccc(O)c(O)c5)nc5ccnn45)CS[C@H]23)cs1 [Example 13, (6R,7R)-7-[(Z)-2-(2-amino-4-thiazolyl)-2-[[(1,4-dihydro-5-hydroxy-4-oxo-2-pyrimidinyl)methoxy]imino]acetamido]-3-[[[5-(3,4-dihydroxyphenyl)pyrazolo[1,5-a]pyrimidin-7-yl]thio]methyl]-8-oxo-5-thia-1-azabicyclo[4.2.0]oct-2-ene-2-carboxylic acid]
MIC (C. freundii 902): 0.25 µg/mL (≈ 0.327 µM) | MIC (E. cloacae 908R): 1 µg/mL (≈ 1.31 µM) | MIC (E. cloacae 908SSi): 4 µg/mL (≈ 5.23 µM) | MIC (E. cloacae P99): 8 µg/mL (≈ 10.5 µM) | MIC (E. coli 25922 [1]): 0.06 µg/mL (≈ 0.0785 µM) | MIC (K. oxytoca 1082): 0.06 µg/mL (≈ 0.0785 µM) | MIC (K. pneumoniae 418): 0.06 µg/mL (≈ 0.0785 µM) | MIC (P. aeruginosa 27853): 4 µg/mL (≈ 5.23 µM) | MIC (P. aeruginosa 799/61): 0.06 µg/mL (≈ 0.0785 µM) | MIC (P. aeruginosa 799/WT): 1 µg/mL (≈ 1.31 µM) | MIC (P. aeruginosa BA): 2 µg/mL (≈ 2.62 µM) | MIC (P. aeruginosa MK1184): 8 µg/mL (≈ 10.5 µM) | MIC (P. mirabilis 2117): 0.06 µg/mL (≈ 0.0785 µM) | MIC (P. vulgaris 1028): 0.06 µg/mL (≈ 0.0785 µM) | MIC (S. aureus 6538): 16 µg/mL (≈ 20.9 µM) | MIC (S. marcescens 69438): 0.12 µg/mL (≈ 0.157 µM) | MIC (S. pyogenes 15): 1 µg/mL (≈ 1.31 µM) | ED50 [2]: 4 mg/kg

Nc1nc(/C(=N/OCc2ccc(O)c(O)c2)C(=O)N[C@@H]2C(=O)N3C(C(=O)O)=C(CS(=O)(=O)c4ccc(O)c(O)c4)CS[C@H]23)cs1 [Example 23, (6R,7R)-7-[(Z)-2-(2-amino-4-thiazolyl)-2-[[(3,4-dihydroxybenzyl)oxy]imino]acetamido]-3-[[(3,4-dihydroxyphenyl)sulphonyl]methyl]-8-oxo-5-thia-1-azabicyclo[4.2.0]oct-2-ene-2-carboxylic acid]
MIC (C. freundii 902): 4 µg/mL (≈ 5.9 µM) | MIC (E. cloacae 908R): > 32 µg/mL | MIC (E. cloacae 908SSi): 16 µg/mL (≈ 23.6 µM) | MIC (E. cloacae P99): > 32 µg/mL | MIC (E. coli 25922 [1]): 0.25 µg/mL (≈ 0.369 µM) | MIC (K. oxytoca 1082): 16 µg/mL (≈ 23.6 µM) | MIC (K. pneumoniae 418): 0.12 µg/mL (≈ 0.177 µM) | MIC (P. aeruginosa 27853): 32 µg/mL (≈ 47.2 µM) | MIC (P. aeruginosa 799/61): 0.12 µg/mL (≈ 0.177 µM) | MIC (P. aeruginosa 799/WT): 1 µg/mL (≈ 1.48 µM) | MIC (P. aeruginosa BA): 32 µg/mL (≈ 47.2 µM) | MIC (P. aeruginosa MK1184): > 32 µg/mL | MIC (P. mirabilis 2117): 1 µg/mL (≈ 1.48 µM) | MIC (P. vulgaris 1028): 2 µg/mL (≈ 2.95 µM) | MIC (S. aureus 6538): 16 µg/mL (≈ 23.6 µM) | MIC (S. marcescens 69438): 2 µg/mL (≈ 2.95 µM) | MIC (S. pneumoniae BA): 4 µg/mL (≈ 5.9 µM) | MIC (S. pyogenes 15): 4 µg/mL (≈ 5.9 µM)

CC(C)(O/N=C(\C(=O)N[C@@H]1C(=O)N2C(C(=O)O)=C(CSc3nnc(-c4ccc(O)c(O)c4)o3)CS[C@H]12)c1csc(N)n1)C(=O)NNC(=O)c1ccc(O)c(O)c1 [Example 45, (6R,7R)-7-[(Z)-2-(2-amino-4-thiazolyl)-2-[[1-[3-(3,4-dihydroxybenzoyl)carbazoyl]-1-methylethoxy]imino]acetamido]-3-[[[5-(3,4-dihydroxyphenyl)-1,3,4-oxadiazol-2-yl]thio]methyl]-8-oxo-5-thia-1-azabicyclo[4.2.0]oct-2-ene-2-carboxylic acid]
MIC (C. freundii 902): 0.06 µg/mL (≈ 0.0725 µM) | MIC (E. cloacae 908R): > 32 µg/mL | MIC (E. cloacae 908SSi): 2 µg/mL (≈ 2.42 µM) | MIC (E. cloacae P99): > 32 µg/mL | MIC (E. coli 25922 [1]): 0.06 µg/mL (≈ 0.0725 µM) | MIC (K. oxytoca 1082): 0.06 µg/mL (≈ 0.0725 µM) | MIC (K. pneumoniae 418): 0.06 µg/mL (≈ 0.0725 µM) | MIC (P. aeruginosa 27853): 0.12 µg/mL (≈ 0.145 µM) | MIC (P. aeruginosa 799/61): 0.64 µg/mL (≈ 0.773 µM) | MIC (P. aeruginosa 799/WT): 0.06 µg/mL (≈ 0.0725 µM) | MIC (P. aeruginosa BA): 0.06 µg/mL (≈ 0.0725 µM) | MIC (P. aeruginosa MK1184): 1 µg/mL (≈ 1.21 µM) | MIC (S. aureus 6538): 16 µg/mL (≈ 19.3 µM) | MIC (S. marcescens 69438): 0.06 µg/mL (≈ 0.0725 µM) | MIC (S. pneumoniae BA): 0.25 µg/mL (≈ 0.302 µM) | MIC (S. pyogenes 15): 1 µg/mL (≈ 1.21 µM) | ED50 (E. coli 25922 [3]): 0.13 mg/kg | ED50 [2]: 2.1 mg/kg
